# In EP4722207A1, “OXOISOINDOLINYL-SUBSTITUTED TETRAHYDROPYRIMIDINEDIONE DERIVATIVE AND USE THEREOF” (Gluetacs Therapeutics (Shanghai) Co., Ltd., priority 2023, dated 2024):
# Legend:
# IKZF1 = molecular target: T1, IKZF1 (Homo sapiens, UniProt Q13422+Q96SW2); assay: Western-blot assay, substrate protein degradation in hPBMCs: IKZF1; format: cell-based; details: for IKZF1 substrate protein remaining %: compounds at 50 nM and 500 nM, 24 hours; for substrate protein remaining % IKZF1: 24 hours of compound treatment, 50 nM and 500 nM
# T1 construct: effects of the compounds of the present disclosure on the expression of target proteins in cells; endogenous in cells; host or cells: human PBMCs (hPBMCs)
# GSPT1 = molecular target: T2, GSPT1 (Homo sapiens, UniProt P15170+Q96SW2); assay: Western-blot assay, substrate protein degradation in hPBMCs: GSPT1; format: cell-based; details: for GSPT1 substrate protein remaining %: compounds at 50 nM and 500 nM, 24 hours; for substrate protein remaining % GSPT1: 24 hours of compound treatment, 50 nM and 500 nM
# T2 construct: effects of the compounds of the present disclosure on the expression of target proteins in cells; endogenous in cells; host or cells: human PBMCs (hPBMCs)
# WEE1 = molecular target: T3, WEE1 (Homo sapiens, UniProt P30291+Q96SW2); assay: Western-blot assay, substrate protein degradation in hPBMCs: WEE1; format: cell-based; details: for WEE1 substrate protein remaining %: compounds at 50 nM and 500 nM, 24 hours; for substrate protein remaining % WEE1: 24 hours of compound treatment, 50 nM and 500 nM
# T3 construct: effects of the compounds of the present disclosure on the expression of target proteins in cells; endogenous in cells; host or cells: human PBMCs (hPBMCs)
# IKZF3 = molecular target: T4, IKZF3 (Homo sapiens, UniProt Q96SW2+Q9UKT9); assay: Western-blot assay, substrate protein degradation in hPBMCs: IKZF3; format: cell-based; details: for IKZF3 substrate protein remaining %: compounds at 50 nM and 500 nM, 24 hours; for substrate protein remaining % IKZF3: 24 hours of compound treatment, 50 nM and 500 nM
# T4 construct: effects of the compounds of the present disclosure on the expression of target proteins in cells; endogenous in cells; host or cells: human PBMCs (hPBMCs)
# MGC803 = assay: Cell viability assay (CellTiter-Meiluncell Luminescent), tumor cell proliferation, MGC803; details: Homo sapiens, MGC-803, 96 h, read-out: inhibitory activity (IC50, nM) against tumor cells proliferation, MGC803
# Description: (§1) On the following day, the test compounds of the present disclosure were subjected to serial dilution. […] Subsequently, 0.5 µL of the test compound dilution was transferred into the 96-well plate containing the cells, with each well containing 100 µL of cell culture medium. […] Into the 96-well plate, the diluted test compounds and corresponding detection reagents were added, resulting in final test compound concentrations of 500 nM and 10 nM, respectively.
# (§2) After the cells were treated with the compounds of the present disclosure for a specified period, the cell viability assay reagent was added to the culture medium according to the kit's instructions to determine cell viability. […] All controls were treated using the same procedure as the compounds of the present disclosure. The growth inhibition curves for the compounds of the present disclosure were plotted using Prism GraphPad software, and the IC50 values were calculated therefrom.
# IKZF2 = molecular target: T5, IKZF2 (Homo sapiens, UniProt Q96SW2+Q9UKS7); assay: Western-blot assay, substrate protein degradation in hPBMCs: IKZF2; format: cell-based; details: for IKZF2 substrate protein remaining %: compounds at 50 nM and 500 nM, 24 hours; for substrate protein remaining % IKZF2: 24 hours of compound treatment, 50 nM and 500 nM
# T5 construct: effects of the compounds of the present disclosure on the expression of target proteins in cells; endogenous in cells; host or cells: human PBMCs (hPBMCs)
# MM.1S = assay: Cell viability assay (CellTiter-Meiluncell Luminescent), tumor cell proliferation, MM.1S; details: Homo sapiens, MM1.S, 96 h; for IC50: read-out: inhibitory activity (IC50, nM) against tumor cells proliferation, MM.1S; for inhibition at 0.01 µM: read-out: Inhibition Rate at 10 nM (%); for inhibition at 0.5 µM: read-out: Inhibition Rate at 500 nM (%)
# CK1α = molecular target: T6, CK1α (Homo sapiens, UniProt P48729+Q96SW2); assay: Western-blot assay, substrate protein degradation in hPBMCs: CK1α; format: cell-based; details: for CK1α substrate protein remaining %: compounds at 50 nM and 500 nM, 24 hours; for substrate protein remaining % CK1α: 24 hours of compound treatment, 50 nM and 500 nM
# T6 construct: effects of the compounds of the present disclosure on the expression of target proteins in cells; endogenous in cells; host or cells: human PBMCs (hPBMCs)
# Jurkat = assay: Cell viability assay (CellTiter-Meiluncell Luminescent), tumor cell proliferation, Jurkat; details: Homo sapiens, 96 h, read-out: inhibitory activity (IC50, nM) against tumor cells proliferation, Jurkat
# Description: as §1, §2
# H292 = assay: Cell viability assay (CellTiter-Meiluncell Luminescent), tumor cell proliferation, H292; details: Homo sapiens, NCI-H292, 96 h; for inhibition at 0.01 µM: read-out: Inhibition Rate at 10 nM (%); for inhibition at 0.5 µM: read-out: Inhibition Rate at 500 nM (%)
# [1] = molecular target: T7, human Cereblon WT GST-tagged protein (Homo sapiens, UniProt Q96SW2); assay: CRBN-binding affinity, CEREBLON BINDING kit (HTRF); details: for inhibition at 0.5 µM: read-out: Inhibition Rate at 0.5 µM (%); for inhibition at 2 µM: read-out: Inhibition Rate at 2 µM (%)
# T7 construct: purchased CISBIO 64BDCRBNPEH
# Excerpt: The CEREBLON BINDING kits (specification: 10,000 tests; product number: Catalog # 64BDCRBNPEH; CISBIO company) was used to determine the CRBN binding ability of the compounds to be tested through a HTRF method (homogeneous time-resolved fluorescence). The specific methods are as follows: • 1. […] Specifically, diluent #9 (1X) solution was used as the diluent, and multiple concentration gradients were set. […] Into the 96-well plate, the diluted test compounds and corresponding detection reagents were added, resulting in final test compound concentrations of 2 µM and 0.5 µM, respectively. […] Then, 2.5 µL of human Cereblon WT GST-tagged protein solution was added to each well. Finally, 5 µL of the thoroughly mixed Thalidomide-Re reagent and GST Eu antibody working solution were added to each of the aforementioned wells. […] The blank control wells were sequentially added with 2.5 µL of diluent #9 (1X) solution, 2.5 µL of binding buffer, and 5 µL of thoroughly mixed Thalidomide-Re reagent and GST Eu antibody working solution. • 4. […] OD 620 nm control is the absorbance value of the blank control well at an emission wavelength of 620 nm. […] OD 620 nm Std0 is the absorbance value of the solvent control well at an emission wavelength of 620 nm.
# H2228 = assay: Cell viability assay (CellTiter-Meiluncell Luminescent), tumor cell proliferation, H2228; details: Homo sapiens, NCI-H2228, 96 h; for inhibition at 0.01 µM: read-out: Inhibition Rate at 10 nM (%); for inhibition at 0.5 µM: read-out: Inhibition Rate at 500 nM (%)
# MV-4-11 = assay: Cell viability assay (CellTiter-Meiluncell Luminescent), tumor cell proliferation, MV-4-11; details: Homo sapiens, MV4-11, 96 h; for inhibition at 0.01 µM: read-out: Inhibition Rate at 10 nM (%); for inhibition at 0.5 µM: read-out: Inhibition Rate at 500 nM (%)
# Description: The tumor cells used herein were cultured in a cell culture medium listed in table 2 at 37°C in an incubator with 5% CO2. Prior to experimentation, all cell lines used were correctly identified by STR profiling, and tested negative for mycoplasma contamination using a mycoplasma detection kit through routine screenings.
# On the following day, the test compounds of the present disclosure were subjected to serial dilution. […] Subsequently, 0.5 µL of the test compound dilution was transferred into the 96-well plate containing the cells, with each well containing 100 µL of cell culture medium. […] Into the 96-well plate, the diluted test compounds and corresponding detection reagents were added, resulting in final test compound concentrations of 500 nM and 10 nM, respectively. The experimental procedure is described below using the diluted 2 µM test compound as an example.
# as §2
# MDA-MB-231 = assay: Cell viability assay (CellTiter-Meiluncell Luminescent), tumor cell proliferation, MDA-MB-231; details: Homo sapiens, MDA-MB-231, 96 h; for inhibition at 0.01 µM: read-out: Inhibition Rate at 10 nM (%); for inhibition at 0.5 µM: read-out: Inhibition Rate at 500 nM (%)
# T2 sequence (P15170 whole entry): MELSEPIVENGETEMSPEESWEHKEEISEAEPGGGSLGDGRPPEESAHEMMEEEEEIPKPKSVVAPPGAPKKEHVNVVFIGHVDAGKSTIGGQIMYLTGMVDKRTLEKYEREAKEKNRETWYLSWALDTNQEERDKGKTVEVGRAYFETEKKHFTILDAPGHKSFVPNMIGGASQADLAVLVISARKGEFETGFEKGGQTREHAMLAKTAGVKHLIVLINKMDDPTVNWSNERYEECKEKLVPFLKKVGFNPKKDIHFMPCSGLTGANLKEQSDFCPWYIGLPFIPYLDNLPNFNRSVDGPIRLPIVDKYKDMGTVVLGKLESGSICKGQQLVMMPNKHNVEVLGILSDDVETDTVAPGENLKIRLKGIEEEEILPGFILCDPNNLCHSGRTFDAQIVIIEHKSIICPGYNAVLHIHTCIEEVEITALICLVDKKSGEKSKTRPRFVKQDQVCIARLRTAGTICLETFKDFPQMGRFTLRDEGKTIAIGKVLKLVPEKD
# T2 sequence (Q96SW2 whole entry): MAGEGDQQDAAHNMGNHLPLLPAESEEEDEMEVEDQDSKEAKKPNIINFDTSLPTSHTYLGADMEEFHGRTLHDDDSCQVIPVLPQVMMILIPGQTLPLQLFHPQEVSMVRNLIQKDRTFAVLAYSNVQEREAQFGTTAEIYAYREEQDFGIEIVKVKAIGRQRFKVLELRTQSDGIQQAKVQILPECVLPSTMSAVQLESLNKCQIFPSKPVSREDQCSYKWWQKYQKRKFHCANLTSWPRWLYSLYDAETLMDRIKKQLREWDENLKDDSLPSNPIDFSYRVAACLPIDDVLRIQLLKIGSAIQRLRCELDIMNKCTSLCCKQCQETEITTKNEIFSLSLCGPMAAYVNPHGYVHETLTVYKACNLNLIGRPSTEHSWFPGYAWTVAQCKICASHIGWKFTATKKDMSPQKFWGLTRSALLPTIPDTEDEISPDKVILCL
# T2 sequence (Q16531 whole entry partner): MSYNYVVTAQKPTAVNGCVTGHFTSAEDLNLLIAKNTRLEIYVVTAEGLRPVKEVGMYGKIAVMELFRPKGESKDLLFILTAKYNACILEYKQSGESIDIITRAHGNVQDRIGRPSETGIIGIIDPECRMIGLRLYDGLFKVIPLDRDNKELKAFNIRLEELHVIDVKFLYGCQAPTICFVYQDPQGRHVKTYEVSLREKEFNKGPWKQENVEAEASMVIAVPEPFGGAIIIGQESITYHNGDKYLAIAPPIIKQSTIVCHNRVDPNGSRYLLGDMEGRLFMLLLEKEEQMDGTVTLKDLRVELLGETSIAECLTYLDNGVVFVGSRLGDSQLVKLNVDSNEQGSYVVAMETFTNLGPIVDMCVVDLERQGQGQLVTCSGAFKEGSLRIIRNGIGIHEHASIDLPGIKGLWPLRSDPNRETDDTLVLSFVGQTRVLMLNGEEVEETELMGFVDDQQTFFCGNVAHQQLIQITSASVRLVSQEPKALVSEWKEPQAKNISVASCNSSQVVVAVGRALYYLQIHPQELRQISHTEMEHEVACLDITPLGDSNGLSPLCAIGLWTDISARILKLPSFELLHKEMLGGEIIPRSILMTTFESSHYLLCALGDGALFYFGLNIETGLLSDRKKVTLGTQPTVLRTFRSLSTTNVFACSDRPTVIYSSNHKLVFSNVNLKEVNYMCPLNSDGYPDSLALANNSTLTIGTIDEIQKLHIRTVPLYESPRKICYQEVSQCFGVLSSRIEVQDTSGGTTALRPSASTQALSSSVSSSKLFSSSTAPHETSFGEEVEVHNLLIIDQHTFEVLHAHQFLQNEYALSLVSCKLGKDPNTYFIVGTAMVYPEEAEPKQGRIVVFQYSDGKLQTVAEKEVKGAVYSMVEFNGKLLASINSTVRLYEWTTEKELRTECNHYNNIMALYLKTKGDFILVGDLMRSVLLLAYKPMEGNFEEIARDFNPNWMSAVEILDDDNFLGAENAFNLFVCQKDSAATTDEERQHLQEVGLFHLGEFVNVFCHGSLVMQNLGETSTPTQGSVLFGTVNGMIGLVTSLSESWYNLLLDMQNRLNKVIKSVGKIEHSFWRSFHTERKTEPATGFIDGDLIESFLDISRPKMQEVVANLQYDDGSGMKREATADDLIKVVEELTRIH
# T5 sequence (Q9UKS7 whole entry): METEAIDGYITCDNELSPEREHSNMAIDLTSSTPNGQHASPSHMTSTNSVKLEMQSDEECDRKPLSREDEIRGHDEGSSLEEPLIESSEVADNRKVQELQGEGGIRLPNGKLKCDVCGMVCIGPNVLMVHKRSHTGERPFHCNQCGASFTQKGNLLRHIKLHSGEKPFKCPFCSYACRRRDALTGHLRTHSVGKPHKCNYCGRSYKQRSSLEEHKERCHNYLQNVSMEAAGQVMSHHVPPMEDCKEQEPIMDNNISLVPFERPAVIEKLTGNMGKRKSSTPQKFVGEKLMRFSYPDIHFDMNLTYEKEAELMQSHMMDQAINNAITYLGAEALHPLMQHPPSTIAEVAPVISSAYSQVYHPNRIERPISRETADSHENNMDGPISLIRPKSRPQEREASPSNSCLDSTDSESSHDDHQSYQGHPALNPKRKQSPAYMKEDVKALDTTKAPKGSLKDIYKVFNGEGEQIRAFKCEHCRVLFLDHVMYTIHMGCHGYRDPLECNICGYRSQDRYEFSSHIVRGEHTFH
# T5 sequence (Q96SW2 whole entry): as the sequence (Q96SW2 whole entry) above
# T5 sequence (Q16531 whole entry partner): as the sequence (Q16531 whole entry partner) above
# T6 sequence (P48729 whole entry): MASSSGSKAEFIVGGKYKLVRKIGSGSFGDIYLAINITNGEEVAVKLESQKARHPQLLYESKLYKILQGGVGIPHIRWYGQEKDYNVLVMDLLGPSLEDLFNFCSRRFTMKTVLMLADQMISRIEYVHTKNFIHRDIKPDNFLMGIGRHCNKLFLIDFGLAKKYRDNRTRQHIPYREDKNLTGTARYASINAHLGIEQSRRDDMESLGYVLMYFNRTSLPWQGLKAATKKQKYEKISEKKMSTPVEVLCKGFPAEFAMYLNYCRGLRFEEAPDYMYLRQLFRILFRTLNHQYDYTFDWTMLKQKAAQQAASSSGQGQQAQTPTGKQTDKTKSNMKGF
# T6 sequence (Q96SW2 whole entry): as the sequence (Q96SW2 whole entry) above
# T6 sequence (Q16531 whole entry partner): as the sequence (Q16531 whole entry partner) above
# T3 sequence (P30291 whole entry): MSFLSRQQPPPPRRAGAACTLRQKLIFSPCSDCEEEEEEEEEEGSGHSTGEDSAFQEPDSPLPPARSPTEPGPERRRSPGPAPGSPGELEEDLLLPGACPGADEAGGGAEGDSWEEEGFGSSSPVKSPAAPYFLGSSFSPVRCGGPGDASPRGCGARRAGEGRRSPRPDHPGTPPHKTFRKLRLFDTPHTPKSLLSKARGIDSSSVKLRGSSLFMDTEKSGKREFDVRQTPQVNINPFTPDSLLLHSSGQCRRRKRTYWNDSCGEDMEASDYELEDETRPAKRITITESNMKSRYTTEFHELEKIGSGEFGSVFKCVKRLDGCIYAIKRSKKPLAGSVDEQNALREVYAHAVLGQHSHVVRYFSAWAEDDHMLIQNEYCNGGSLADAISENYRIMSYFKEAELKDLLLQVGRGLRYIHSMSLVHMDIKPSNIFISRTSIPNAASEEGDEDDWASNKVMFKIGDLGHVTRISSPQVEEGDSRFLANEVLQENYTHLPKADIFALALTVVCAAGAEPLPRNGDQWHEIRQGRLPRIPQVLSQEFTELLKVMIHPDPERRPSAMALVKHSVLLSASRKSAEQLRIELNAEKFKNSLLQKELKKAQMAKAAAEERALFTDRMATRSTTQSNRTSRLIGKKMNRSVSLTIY
# T3 sequence (Q96SW2 whole entry): as the sequence (Q96SW2 whole entry) above
# T3 sequence (Q16531 whole entry partner): as the sequence (Q16531 whole entry partner) above
# T1 sequence (Q13422 whole entry): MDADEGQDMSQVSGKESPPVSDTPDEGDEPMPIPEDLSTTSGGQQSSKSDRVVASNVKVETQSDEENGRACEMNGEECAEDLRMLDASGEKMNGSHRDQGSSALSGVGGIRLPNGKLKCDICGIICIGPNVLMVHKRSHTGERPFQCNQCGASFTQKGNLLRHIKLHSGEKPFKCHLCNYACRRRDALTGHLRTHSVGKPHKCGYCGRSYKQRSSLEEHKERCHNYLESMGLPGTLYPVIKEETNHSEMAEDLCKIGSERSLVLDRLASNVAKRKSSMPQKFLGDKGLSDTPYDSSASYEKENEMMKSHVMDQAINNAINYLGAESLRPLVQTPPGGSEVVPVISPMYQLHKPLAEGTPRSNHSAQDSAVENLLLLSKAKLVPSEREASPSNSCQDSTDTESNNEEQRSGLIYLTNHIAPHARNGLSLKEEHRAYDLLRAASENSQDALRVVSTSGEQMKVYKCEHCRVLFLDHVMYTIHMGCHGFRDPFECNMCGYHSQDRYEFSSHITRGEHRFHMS
# T1 sequence (Q96SW2 whole entry): as the sequence (Q96SW2 whole entry) above
# T1 sequence (Q16531 whole entry partner): as the sequence (Q16531 whole entry partner) above
# T7 sequence (Q96SW2 whole entry): as the sequence (Q96SW2 whole entry) above
SMILES,IKZF1 substrate protein remaining % (IKZF1),GSPT1 substrate protein remaining % (GSPT1),WEE1 substrate protein remaining % (WEE1),IKZF3 substrate protein remaining % (IKZF3),IC50 (MGC803) [nM],IKZF2 substrate protein remaining % (IKZF2),IC50 (MM.1S) [nM],CK1α substrate protein remaining % (CK1α),inhibition at 0.5 µM [1] [%],inhibition at 2 µM [1] [%],inhibition at 0.01 µM (H2228) [%],inhibition at 0.5 µM (H2228) [%],inhibition at 0.01 µM (MV-4-11) [%],inhibition at 0.5 µM (MV-4-11) [%],other results
"O=C1CCN(N2Cc3cc(CN4CCN(c5cccc(Cl)c5Cl)CC4)ccc3C2=O)C(=O)N1 [GT-04853, 1-(5-((4-(2,3-dichlorophenyl)piperazin-1-yl)methyl)-1-oxoisoindolin-2-yl)dihydropyrimidine-2,4(1H,3H)-dione]","A (""A"" is defined as 0% ≤ substrate protein remaining % ≤ 80%)","A (""A"" is defined as 0% ≤ substrate protein remaining % ≤ 80%)","A (""A"" is defined as 0% ≤ substrate protein remaining % ≤ 80%)","B (""B"" is defined as 80%< substrate protein remaining %≤ 100%)",500 to 1000,"A (""A"" is defined as 0% ≤ substrate protein remaining % ≤ 80%)",100 to 300,"B (""B"" is defined as 80%< substrate protein remaining %≤ 100%)",–,–,–,–,–,–,–
"O=C1CCN(N2Cc3cc(CN4CCN(c5cccc6sccc56)CC4)ccc3C2=O)C(=O)N1 [GT-04866, 1-(5-((4-(benzo[b]thiophen-4-yl)piperazin-1-yl)methyl)-1-oxoisoindolin-2-yl)dihydropyrimidine-2,4(1H,3H)-dione]","A (""A"" is defined as 0% ≤ substrate protein remaining % ≤ 80%)","A (""A"" is defined as 0% ≤ substrate protein remaining % ≤ 80%)","A (""A"" is defined as 0% ≤ substrate protein remaining % ≤ 80%)","B (""B"" is defined as 80%< substrate protein remaining %≤ 100%)",300 to 500,"B (""B"" is defined as 80%< substrate protein remaining %≤ 100%)",100 to 300,"B (""B"" is defined as 80%< substrate protein remaining %≤ 100%)",–,–,–,–,–,–,IC50 (Jurkat): 300 to 500 nM
"O=C1CCN(N2Cc3cc(CN4CC=C(c5cccs5)CC4)ccc3C2=O)C(=O)N1 [GT-04868, 1-(1-oxo-5-((4-(thiophen-2-yl)-3,6-dihydropyridin-1(2H)-yl)methyl)isoindolin-2-yl)dihydropyrimidine-2,4(1H,3H)-dione]","A (""A"" is defined as 0% ≤ substrate protein remaining % ≤ 80%)","A (""A"" is defined as 0% ≤ substrate protein remaining % ≤ 80%)","A (""A"" is defined as 0% ≤ substrate protein remaining % ≤ 80%)","B (""B"" is defined as 80%< substrate protein remaining %≤ 100%)",300 to 500,"B (""B"" is defined as 80%< substrate protein remaining %≤ 100%)",100 to 300,"A (""A"" is defined as 0% ≤ substrate protein remaining % ≤ 80%)",–,–,–,–,–,–,IC50 (Jurkat): 300 to 500 nM
"O=C1CCN(N2Cc3cc(CN4CCN(C(c5ccccc5)c5ccccn5)CC4)ccc3C2=O)C(=O)N1 (stereo not shown) [GT-04890, 1-(1-oxo-5-((4-(phenyl(pyridin-2-yl)methyl)piperazin-1-yl)methyl)isoindolin-2-yl)dihydropyrimidine-2,4(1H,3H)-dione]","A (""A"" is defined as 0% ≤ substrate protein remaining % ≤ 80%)","A (""A"" is defined as 0% ≤ substrate protein remaining % ≤ 80%)","B (""B"" is defined as 80%< substrate protein remaining %≤ 100%)","B (""B"" is defined as 80%< substrate protein remaining %≤ 100%)",500 to 1000,"A (""A"" is defined as 0% ≤ substrate protein remaining % ≤ 80%)",100 to 300,"B (""B"" is defined as 80%< substrate protein remaining %≤ 100%)",–,–,–,–,–,–,–
"O=C1CCN(N2Cc3cc(CN4CCN(c5ncnc6scc(-c7ccccc7)c56)CC4)ccc3C2=O)C(=O)N1 [GT-08065, 1-(1-oxo-5-((4-(5-phenylthieno[2,3-d]pyrimidin-4-yl)piperazin-1-yl)methyl)isoindolin-2-yl)dihydropyrimidine-2,4(1H,3H)-dione]",–,–,–,–,–,–,–,–,20 to 30,60 to 80,20 to 25,25 to 30,30 to 40,10 to 18,substrate protein remaining % IKZF1 (IKZF1): B (80%< substrate protein remaining %≤ 100%); inhibition at 0.01 µM (H292): 20 to 40%; inhibition at 0.5 µM (H292): 20 to 40%; substrate protein remaining % GSPT1 (GSPT1): B (80%< substrate protein remaining %≤ 100%); substrate protein remaining % WEE1 (WEE1): B (80%< substrate protein remaining %≤ 100%); substrate protein remaining % IKZF3 (IKZF3): B (80%< substrate protein remaining %≤ 100%); substrate protein remaining % IKZF2 (IKZF2): A (0% ≤ substrate protein remaining % ≤ 80%); inhibition at 0.01 µM (MM.1S): 20 to 30%; inhibition at 0.5 µM (MM.1S): 20 to 30%; substrate protein remaining % CK1α (CK1α): B (80%< substrate protein remaining %≤ 100%)
"O=C1CCN(N2Cc3cc(CN4CCN(c5ncnc6sc7c(c56)CCC7)CC4)ccc3C2=O)C(=O)N1 [GT-08079, 1-(5-((4-(6,7-dihydro-5H-cyclopenta[4,5]thieno[2,3-d]pyrimidin-4-yl)piperazin-1-yl)methyl)-1-oxoisoindolin-2-yl)dihydropyrimidine-2,4(1H,3H)-dione]",–,–,–,–,–,–,–,–,20 to 30,53 to 60,15 to 20,20 to 25,40 to 60,40 to 60,substrate protein remaining % IKZF1 (IKZF1): B (80%< substrate protein remaining %≤ 100%); inhibition at 0.01 µM (H292): 20 to 40%; inhibition at 0.5 µM (H292): 20 to 40%; substrate protein remaining % GSPT1 (GSPT1): A (0% ≤ substrate protein remaining % ≤ 80%); substrate protein remaining % WEE1 (WEE1): A (0% ≤ substrate protein remaining % ≤ 80%); substrate protein remaining % IKZF3 (IKZF3): B (80%< substrate protein remaining %≤ 100%); inhibition at 0.01 µM (MDA-MB-231): 18 to 25%; inhibition at 0.5 µM (MDA-MB-231): 10 to 15%; substrate protein remaining % IKZF2 (IKZF2): B (80%< substrate protein remaining %≤ 100%); substrate protein remaining % CK1α (CK1α): A (0% ≤ substrate protein remaining % ≤ 80%)
"O=C1CCN(N2Cc3cc(CN4CC=C(c5ncnc6sc(-c7ccccc7)cc56)CC4)ccc3C2=O)C(=O)N1 [GT-08173, 1-(1-oxo-5-((4-(6-phenylthieno[2,3-d]pyrimidin-4-yl)-3,6-dihydropyridin-1(2H)-yl)methyl)isoindolin-2-yl)dihydropyrimidine-2,4(1H,3H)-dione]",–,–,–,–,–,–,–,–,20 to 30,53 to 60,5 to 10,40 to 60,10 to 18,80 to 100,inhibition at 0.01 µM (MDA-MB-231): 10 to 15%; inhibition at 0.5 µM (MDA-MB-231): 60 to 80%; inhibition at 0.01 µM (MM.1S): -5 to 0%; inhibition at 0.5 µM (MM.1S): 80 to 100%
